From PubChem BioAssay (NCI)
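Step 1: Grow cells in 96-well plates. Step 2: Expose to compound for 48 hours at 5 concentrations. Step 3: Interpolate endpoints linearly; if unreached, use highest concentration. Abbreviation: GI50, concentration required for 50% inhibition of growth. TGI: concentration producing complete growth inhibition.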

Assays:
Assay in all cases: NCI anticancer screen, dose series, 48 h
DU-145 prostate = test system: DU-145 prostate
EKVX NSCLC = test system: EKVX NSCLC
LOX IMVI melanoma = test system: LOX IMVI melanoma
MOLT-4 leukemia = test system: MOLT-4 leukemia
OVCAR-3 ovarian = test system: OVCAR-3 ovarian
OVCAR-8 ovarian = test system: OVCAR-8 ovarian
SK-MEL-28 melanoma = test system: SK-MEL-28 melanoma
TK-10 renal = test system: TK-10 renal
U251 CNS = test system: U251 CNS
UACC-62 melanoma = test system: UACC-62 melanoma

Structure (SMILES) | GI50 (DU-145 prostate) [µM] | TGI (DU-145 prostate) [µM] | GI50 (EKVX NSCLC) [µM] | TGI (EKVX NSCLC) [µM] | GI50 (LOX IMVI melanoma) [µM] | TGI (LOX IMVI melanoma) [µM] | GI50 (MOLT-4 leukemia) [µM] | TGI (MOLT-4 leukemia) [µM] | GI50 (OVCAR-3 ovarian) [µM] | TGI (OVCAR-3 ovarian) [µM] | GI50 (OVCAR-8 ovarian) [µM] | TGI (OVCAR-8 ovarian) [µM] | GI50 (SK-MEL-28 melanoma) [µM] | TGI (SK-MEL-28 melanoma) [µM] | GI50 (TK-10 renal) [µM] | TGI (TK-10 renal) [µM] | GI50 (U251 CNS) [µM] | TGI (U251 CNS) [µM] | GI50 (UACC-62 melanoma) [µM] | TGI (UACC-62 melanoma) [µM]
Cc1ccc(CNc2ccc(Cl)cc2NCc2ccc(C)c(O)c2)cc1O | 7.71 | 14.4 | 8.14 | 15.4 | 6.93 | 13.5 | 3.34 | 14.7 | 7.15 | 13.9 | 8.66 | 18.4 | 7.21 | 14.2 | 8.4 | 15.5 | 7.15 | 14.2 | 7.55 | 14.5
CC(=O)O[C@@H]1[C@H]2O[C@H]2[C@H]2O[C@@]2(COC(=O)c2ccccc2)[C@H]1OC(C)=O | – | > 100 | – | > 100 | – | > 100 | – | > 100 | – | > 100 | – | > 100 | – | > 100 | – | > 100 | – | > 100 | – | > 100
COc1ccc2c(c1)OCC1c3cc(OC)ccc3OC21 (stereo unspecified) | > 100 | > 100 | 32.6 | > 100 | 45.9 | > 100 | 8.94 | 61.1 | 44.2 | > 100 | 80.3 | > 100 | 91.2 | > 100 | > 100 | > 100 | 58 | > 100 | 51 | > 100
CC(C)c1c(C(=O)Nc2ccccc2)c(-c2ccccc2)c(-c2ccc(F)cc2)n1CC[C@@H](O)C[C@@H](O)CC(=O)O | 52.5 | > 100 | 49.4 | > 100 | 3.11 | 22.9 | 28.8 | 99.2 | 33.1 | > 100 | 20.4 | > 100 | 18.2 | > 100 | 45.5 | > 100 | 4.48 | > 100 | 6.59 | 51.5
COc1ccc2c(c1)c(-c1nc(-c3cn(C)c4ncccc34)cs1)cn2CCCCN1CCCCC1 | 1.74 | 3.12 | 1.66 | 3.18 | – | – | – | – | 1.7 | 3.15 | – | – | 1.74 | 3.16 | 1.53 | 2.95 | – | – | – | –
CC(C)OC(=O)OCOP(=O)(OCOC(=O)OC(C)C)C1CCCN(O)C1=O (stereo unspecified) | 3.83 | > 100 | 3.03 | > 100 | 2.3 | > 100 | 1.34 | > 100 | 1.47 | > 100 | 0.619 | > 100 | 0.739 | 7.83 | 1.54 | > 100 | 1.76 | > 100 | 0.704 | 3.29
COc1ncc(-c2ccc3nc(N)n(-c4ccccc4C(F)(F)F)c(=O)c3c2)cc1S(=O)(=O)Nc1ccc(F)cc1F | 0.897 | > 100 | 0.86 | > 100 | 0.224 | 0.761 | 3.85 | 56.1 | 0.369 | 3.75 | 3.55 | > 100 | 3.63 | 14.1 | 6.73 | > 100 | 0.953 | 15.3 | 3.06 | 9.59
O=C(/C=C/c1c[nH]c2ccccc12)c1ccccc1O | – | 23.9 | – | 33 | – | 21.7 | – | 37 | – | 20.3 | – | 39.2 | – | 47.6 | – | 32.8 | – | 40.4 | – | 21
C=C1C(=O)O[C@H]2[C@H]1CC/C(COC(=O)NCc1ccc(Cn3c(=O)sn(CCCI)c3=O)cc1)=C\CC[C@@]1(C)O[C@@H]21 | 1.74 | 3.16 | 2.09 | 6.77 | 1.4 | 2.81 | 0.294 | 3.19 | 1.19 | 2.43 | 3.04 | 9.87 | 1.92 | 3.79 | 1.71 | 3.35 | 1.75 | 3.68 | 1.41 | 2.88
C/C=C/C(C/C=C(\C)CO[Si](C)(C)C(C)(C)C)O[Si](C)(C)C(C)(C)C (stereo unspecified) | – | > 100 | – | > 100 | – | > 100 | – | > 100 | – | > 100 | – | > 100 | – | > 100 | – | > 100 | – | – | – | > 100
CCN(CC)CCN1C(=O)c2cccc3cc(N)cc(c23)C1=O | – | > 100 | – | 22.8 | – | – | – | > 100 | – | 44.3 | – | > 100 | – | 36.1 | – | > 100 | – | > 100 | – | 24.6
CCN(CC)c1ccc(C=C2C(=O)NC(=S)NC2=O)cc1 | 4.18 | 13 | 14 | 28.6 | 2.12 | 4.57 | 3.16 | 10.4 | 3.15 | 8.68 | 3.83 | 13.4 | 2.43 | 5.1 | – | – | 2.9 | 7.59 | 2.26 | 6.72
C=CN(C(=O)N1CCN(c2cc3c(cc2F)c(=O)c(C(=O)O)cn3C2CC2)CC1)c1nc(-c2ccc(C)cc2)cs1 | 3.8 | > 100 | 3.61 | > 100 | – | – | – | – | 3.83 | > 100 | 3.33 | 19.9 | 4.49 | > 100 | 3.89 | > 100 | 3.39 | 11.6 | – | –
Fc1cnccc1-c1nc2ccc3[nH]ncc3c2c2c1CCCC2 | 1.67 | 43.3 | 0.442 | 13 | 1.58 | 12.6 | – | – | 2.46 | 10.9 | 2.1 | > 100 | – | – | 0.605 | > 100 | 1.96 | > 100 | 1.44 | 5.75
